# Laboratory results as given in patent US20070167412A1, “HALOCOMBSTATINS AND METHODS OF SYNTHESIS THEREOF” (ARIZONA BOARD OF REGENTS, priority 2003, published 2007).
# Key:
# [1] = test system: human umbilical vein endothelial cells (HUVEC); test: HUVEC growth inhibition, sulforhodamine B assay; format: cell-based; conditions: HUVEC
# Experimental: (§1) In vitro Matrigel antiangiogenesis assays were implemented according to the Developmental Therapeutics Program NCI/NIH protocols known to one of skill in the art. Matrigel, a basement membrane matrix, was obtained from BD Biosciences. Growth inhibition and cord formation assays were Conducted using human umbilical vein endothelial cells obtained from GlycoTeCh. HUVEC cells were grown in EGM-2 medium.
# The standard sulforhodamine B assay (see Cancer Cell Line Procedures above) was used to evaluate results using HUVEC cells. IC50 or ED50 (drug concentration causing 50% inhibition) was calculated from the plotted data.
# [2] = test system: human umbilical vein endothelial cells (HUVEC); test: Matrigel cord formation assay; format: cell-based; set-up: key: −: No Junctions; +: Few; ++: ˜50% of Control; +++: Same as Control; conditions: 24 hours, compared to untreated controls
# Experimental: as §1
# An aliquot of sixty microliters was placed in each well of an ice-cold 96-well plate. The plates were then left for 15 minutes at room temperature, then incubated for 30 minutes at 37° C. to permit the matrigel to polymerize. Meanwhile, HUVEC cells were harvested and diluted to a concentration of 2×10^5 cells/ml. A solution of 100 μL containing the compounds to be tested was added next. After 24 hours incubation, pictures were taken for each concentration using an inverted Nikon Diaphot microscope and D100 digital camera. Drug effect was assessed, compared to untreated controls, by measuring the length of cords formed and number ofjunctions.
# [3] = test system: tubulin; test: inhibition of [3H]colchicine binding to tubulin; conditions: 1.0 μM tubulin, 5.0 μM [3H]colchicine, inhibitor at 1.0 μM, 10 minutes at 37° C.
# Experimental: Tubulin polymerization was evaluated by turbidimetry at 350 nm using Beckman DU7400/7500 spectrophotometers as described in detail elsewhere. […] Varying concentrations of drug were preincubated with 10 μM:M ([…]) purified tubulin (See Hamel, E., et al., Separation of Active Tubulin and Microtubule-associated Proteins by Ultracentrifiigation and Isolation of a Component Causing the Formation of Microtubule Bundles, Biochemistry 1984, 23, 4173-4184). Samples were chilled on ice, GTP (0.4 mM) was added, and polymerization was followed at 30° C. The parameter measured was extent of the reaction after 20 minutes. Coichicine binding was measured as described in detail previously. Reaction mixtures contained 1.0 μM :M tubulin, 5.0:M, [^3H]colchicine (from Dupont), and inhibitor at 1.0 μM:M. Incubation was for 10 minutes at 37° C.
# [4] = test system: Breast MCF-7; test: human cancer cell growth inhibition, sulforhodamine B assay; format: cell-based; conditions: Homo sapiens, MCF7; Table I; 48 hours; read-out: Human cancer cell line inhibition (GI50) Breast adn MCF-7
# Summary of the method: (§2)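 Following the standard NCI SRB assay, cultures were treated for 48 h before trichloracetic acid fixation and dye staining.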
# [5] = test system: Prostate DU-145; test: as above; format: cell-based; conditions: Homo sapiens, DU-145; Table I; 48 hours; read-out: Human cancer cell line inhibition (GI50) Prostate DU-145
# Summary of the method: as §2
# [6] = test system: Pancreas BXPC-3; test: as above; format: cell-based; conditions: Homo sapiens, BXPC-3; Table I; 48 hours; read-out: Human cancer cell line inhibition (GI50) Pancreas-a BXPC-3
# Summary of the method: as §2
# [7] = test system: CNS SF268; test: as above; format: cell-based; conditions: Homo sapiens, SF-268; Table I; 48 hours; read-out: Human cancer cell line inhibition (GI50) CNS SF268
# Summary of the method: as §2
# [8] = test system: Colon KM20L2; test: as above; format: cell-based; conditions: Homo sapiens, KM-20L2; Table I; 48 hours; read-out: Human cancer cell line inhibition (GI50) Colon KM20L2
# Summary of the method: as §2
structure (smiles),measurement,setting,value
"COc1ccc(/C=C\c2cc(I)c(OC)c(OC)c2)cc1O [Compound 14a, 3-Iodo-4,4′,5-trimethoxy-3′-hydroxy-z-stilbene]",Relative % Growth,[1]; 0.00001 μg/ml,90%
same,Relative % Growth,[1]; 0.0001 μg/ml,18%
same,Relative % Growth,[1]; 0.001 μg/ml,14%
same,Relative % Growth,[1]; 0.01 μg/ml,14%
same,GI50,"[1]; Homo sapiens, Table V, read-out: Human Umbilical Vein Endothelial Cell (HUVEC) Inhibition Values (GI50)",0.04 ng/mL
same,Number of junctions,[2]; 0.001 μg/ml,+
same,Number of junctions,[2]; 0.01 μg/ml,−
same,Inhibition of colchicine binding % inhibition ± S.D.,[3],84 ± 7%
same,GI50,[4],0.22 ng/mL
same,GI50,[5],0.52 ng/mL
same,GI50,[6],110 ng/mL
same,GI50,[7],0.35 ng/mL
same,GI50,[8],150 ng/mL
